Measured values from patent US20220296610A1, “COMPOSITIONS AND METHODS FOR TREATMENT OF INFECTION AND NOVEL COSMECEUTICAL PREPARATIONS” (priority 2017, published 2022).
Several values for one entry are separate records, joined by “and”; a condition that tells them apart may be missing. Equal values may be shown once. Entries after “also recorded” stand apart in the source; their conditions may differ.

Tests used:
human fibroblasts = assay: Survival of fibroblast cultures at 80% and 30% confluency; format: cell-based; settings: 2.5 μM; 30% vs 80% confluency
Method: (§1) All cells were treated with 2.5 μM NVX-207. Percentage (means±S.E., n=3) of control-treated cells are given. […] Mean survival in NVX-207 treated fibroblasts at 80% confluency was 92% (S.E.=3.8) versus 3.8% mean survival (S.E.=0.4) at 30% confluency. […] HUVECs, keratinocytes and fibroblast cells were obtained from Lonza GmbH (Wuppertal, Germany) and cultivated according to the manufacturer's instructions.
(§2) The IC50 value of betulinic acid in human keratinocytes was recently determined to be ˜5.0 μg/ml (Tino Galgon al., Exp Dermatol. 14:736-43, 2005), while the IC50 of NVX-207 is ˜0.7 μg/ml. Consequently, the IC50 value of NVX-207 was almost 10-fold lower compared to betulinic acid on a molar basis. […] Under normal physiological circumstances, the endothelium, as well as fibroblasts and keratinocytes of the tissue like normal skin, show relatively low turn-over and limited cell divisions to maintain tissue integrity. […] Angiogenesis also plays a role in the pathogenesis of rosacea and a topical angiogenesis inhibitor (dobesilate) for treatment of rosacea has been described. Local inhibition of angiogenic factors function may prevent skin angiogenesis and inflammation in rosacea and other angiogenesis-dependent skin diseases in which a dense network of new vessels is produced and inflammatory cells are present. […]

[1] = tested on: Sweat gland adenocarcinoma; assay: Intratumoral treatment of canine cancer patient, sweat gland adenocarcinoma; format: in vivo, dog; settings: Patient #4, NVX-207 alone 10 mg/ml in 2-hydroxypropyl-γ-cyclodextrin
Method: (§3) A study was performed using NVX-207 on a canine squamous cell carcinoma of the nasal plane. […] Histology was confirmed by biopsy before treatment. Prior to each treatment, the dog was physically examined and routine blood counts and serum chemistry analyses were performed. Tumor measurements were obtained using callipers at each treatment. Tumor size was determined by the longest diameter of the target lesion or by calculating the mean of the longest diameters of the lesion treated. Tumor response was classified as stable (less than 50% change), partial—(decrease by >50%) or as a complete response if no palpable or visible evidence of tumor was available. Intralesional treatment of the patient comprised local infiltration of the local tumor, including 1 cm of the surrounding tissue, with NVX-207 in combination with cisplatin. […] Tumor recurrence was observed 18 months later. […] No further complications were observed.
(§4) Patients 1, 2, and 3 correspond to the dogs described above with squamous, soft tissue, and mammary carcinoma, respectively. Tumor size and tumor responses were determined as in described above. Intralesional treatment of the patients comprised local infiltration of the local tumor including 1 cm of the surrounding tissue—if applicable—with NVX-207 alone (for patients #2-#4) or in combination with cisplatin (patient #1, see also FIG. 3). […]

[2] = tested on: human hyperkeratotic lesion with an inflammatory component; assay: Topical treatment of human hyperkeratotic lesion; format: in vivo; settings: 1% topical solution
[3] = tested on: human umbilical vein endothelial cells (HUVEC); assay: Survival of endothelial cell cultures at 80% and 30% confluency; format: cell-based; settings: 2.5 μM
Method: as §1, §2

pig skin = settings: in vivo, 2 weeks
Excerpt: Skin areas were visually inspected every day.
Skin areas were visually inspected every day. Photographs were taken at three day intervals. […] On day 14, pigs were anesthetized with ketamine and azaperon, and euthanized by intracardial application of T61®.

[4] = tested on: bacteria obtained from the skin surface of an individual; assay: Filter disk growth inhibition on LB-agar plates; format: cell-based
Method: 10 mm filter disks (numbered 1 to 4) were soaked in 10 μl of 10.0, 5.0, 2.5, and 1.25 mg/ml of NVX-207, respectively, and placed on LB-Agar plates on which a skin bacterial isolate had been plated. 15 ml of LB/Agar was used for pouring one plate. Control disks were soaked in 10 μl of the corresponding solvent and paced in the center of the plates. LB-Agar plates were then cultivated over night at 30° C. and bacterial growth was monitored by comparing growth inhibition zones around the soaked disks. […]
Antibacterial effects of NVX-207 were tested against bacteria obtained from the skin surface of an individual. NVX-207 was used either as a cyclodextrin formulation (NVX-207 (at 10 mg/ml final concentration) was formulated in 2-hydroxypropyl-gamma-cyclodextrin (at 150 mg/ml final concentration) in water) (FIG. 6A), or a Tween 80/Ethanol formulation (described in Example 2) (FIG. 6B). Filter disks 1 to 4 were soaked in 10 μl of 10.0, 5.0, 2.5, and 1.25 mg/ml of NVX-207, respectively, and placed on LB-agar plates (total volume of 15 ml LB-agar per plate) on which a skin bacterial isolate had been plated at low density. Control disks placed in the center of the plates were soaked in 10 μl of the corresponding solvent. LB-Agar plates were then cultivated over night at 30° C. and bacterial growth was examined after 18 hours. […]

Mammary carcinoma = assay: Intratumoral treatment of canine cancer patient, mammary carcinoma; format: in vivo, dog; settings: Patient #3, NVX-207 alone 10 mg/ml in 2-hydroxypropyl-γ-cyclodextrin
Method: as §3, §4

Soft tissue sarcoma = assay: Intratumoral treatment of canine cancer patient, soft tissue sarcoma; format: in vivo, dog; settings: Patient #2
Method: as §3, §4

canine cancer patients = assay: Inflammation and infection after repeated intralesional injections in dogs; format: in vivo, dog; settings: intratumoral treatment of canine malignancies
Excerpt: FIGS. 3A-D show the effects of intratumoral treatment of NVX-207 in various spontaneously arising canine malignancies (before and after pictures). […] FIGS. 3B-D show NVX-207 treatment effects in a canine mammary carcinoma and two separate cases of soft tissue sarcoma, respectively. […] Microbial infections (with bacteria, fungi, viruses or protozoa) usually almost invariably accompany multiple injections under similar non-sterile conditions, because the coat of the animal cannot be efficiently sterilized. This in turn leads to unwanted treatment interruptions.
FIGS. 3B-D show NVX-207 treatment effects in a canine mammary carcinoma and two separate cases of soft tissue sarcoma, respectively. […] Microbial infections (with bacteria, fungi, viruses or protozoa) usually almost invariably accompany multiple injections under similar non-sterile conditions, because the coat of the animal cannot be efficiently sterilized. This in turn leads to unwanted treatment interruptions.
As noted above, strong evidence for an antibacterial activity of NVX-207 also comes from the canine cancer treatments. Dogs were treated over several months by repeated intralesional and peritumoral injections of NVX-207. […] This is highly unusual, since intralesional treatments under the same conditions are usually associated with a high incidence of serious local soft tissue infections leading to treatment interruptions. […]

[5] = tested on: canine basal cell carcinoma; format: in vivo, dog
Excerpt: Differential diagnoses included virus induced lesions such as warts which are caused by papillomaviruses, and are thus an example of anti-microbial/anti-viral activity.

human keratinocytes = assay: Survival of keratinocyte cultures at 80% and 30% confluency; format: cell-based; settings: 2.5 μM; 30% vs 80% confluency
Method: as §1, §2

C=C(C)[C@@H]1CC[C@]2(C(=O)OCC(N)(CO)CO)CC[C@]3(C)[C@H](CC[C@@H]4[C@@]5(C)CC[C@H](OC(C)=O)C(C)(C)[C@@H]5CC[C@]43C)[C@@H]12 [NVX-207, 3-O-acetylbetulinic acid-2-amino-3-hydroxy-2-hydroxymethylpropyl ester]
more active against proliferating human fibroblasts (human fibroblasts): over 20 fold | Tumor response [1]: SD (SD, stable disease) | side effects on treated skin [2]: No deleterious (toxic) effects; also recorded: no reddening, inflammation or any side effects | reduction of lesion ([2]; next day after only one treatment): > 80% | more effective in sub-confluent (30%) than nearly confluent (80%) endothelial cells [3]: ~5 fold | macroscopic skin irritations (pig skin): No macroscopic NVX-207 related skin irritations | estimated concentration at which strong inhibitory effects were seen ([4]; Tween/Ethanol formulation, assumed distribution volume ~2.5 ml): 1 µg/mL and 1.0 µg/mL | final concentration at which growth inhibition was seen ([4]; cyclodextrin formulation, distribution volume approximately 1 ml): ~100 µg/mL | Tumor response (Mammary carcinoma): SD (SD, stable disease) | OS, overall survival time (Soft tissue sarcoma): 15 months | Tumor response (Soft tissue sarcoma; NVX-207 alone 10 mg/ml in 2-hydroxypropyl-γ-cyclodextrin, intratumoral): PR (PR, partial remission) | treatment-related inflammation (canine cancer patients): completely prevented | reduction of lesion ([5]; 1% topical solution every second to third day, after 3 weeks): about 90% | inflammation or infection at the treatment site ([5]; dog, in vivo): absence of inflammation or infection | more active against proliferating keratinocytes (human keratinocytes): ~6 fold
